Laboratory results from US6177405A, “Cyclic analogs of tuftsin” (priority 1992, dated 2001).
Residues, ends and D or L forms follow the SMILES beside them.

Tests used:
Format in all cases: cell-based
human NK cells = assay: Tumor cell cytotoxicity assay by human NK cells (4 hour 51Cr release, K-562 targets); conditions: effector:target ratios of 25:1 and 50:1, peptide concentration 1 μg/ml, FIG. 3
Protocol: Tumor Cell Cytotoxicity Assay by Human NK Cells
Heparinized blood was layered over Leukoprep tube (30 ml per tube), and centrifuged. The mononuclear cells at interphase were collected, washed with HBSS, suspended in RPMI-1640 medium with 10% FBS (15 ml per 30 ml starting blood), plated on Petri dishes, and incubated for 1 hour. Non-adherent cells were collected, suspended in RPMI-1640 medium with 5% FBS, and adjusted to 1×10^6 /ml for 4 hour ^51 Cr release assay. The viability of this NK cell enriched fraction was assessed with trypan blue.
The tumor target cells, K-562, were harvested from culture, washed with RPMI-1640 medium with 5% FBS, and centrifuged. Pelleted cells of 2×10^6 K-562 were suspended into 0.2 ml of 100 μCi of ^51 CrO4 in saline, and labelled for 90 min in the incubator. The labelled target cells were washed with RPMI-1640 medium with 5% FBS, suspended in the same medium, and adjusted to a suspension of 2×10^5 /ml. […] Filters containing radioactive supernatants were counted on a γ counter, and counts per minutes (cpm) were recorded. Percent cytotoxicity (% specific lysis) was calculated by the following formula: […]
Spontaneous cpm was obtained by incubating the tumor target cells alone in the medium. Maximum cpm was obtained by releasing the radioactivity from the target cells by treatment with Triton X-100. […]

[1] = test system: Human polymorphonuclear leukocytes (PMNs); assay: Phagocytosis assay (fluorescent microspheres engulfed per PMN)
Protocol: Phagocytosis Assay Human polymorphonuclear leukocytes (PMNs) were prepared from venous blood of healthy donors. Heparinized blood was mixed with dextran and kept at 37° C. for 1 hour. The leukocyte-rich plasma was collected and centrifuged. The resulting pellet was washed with Hank's balanced salt solution (HBSS). The pellet was then suspended into HBSS, layered over Lymphocyte Separation Medium (LSM) and centrifuged. The sedimented cells were washed with HBSS. Contaminant erythrocytes were lysed by suspending the cells in sterile water for 15 seconds. The isotonicity was then restored by adding 10× HBSS. After centrifuging, the PMNs were washed with HBSS, suspended in the same medium, counted, and adjusted to 1×10^6 viable cells/ml (viability>95% by trypan blue dye exclusion). Cells (0.5×10^6 /well) were plated in 24 well plate and placed in a 37° C. CO2 incubator for 30 min to form a monolayer. Thereafter the supernatant was aspirated. Tuftsin or analog in 250 μl HBSS and 2.5×10^7 fluorescent microspheres (2 μm diameter) in 250 μl HBSS, were added to each well resulting in a particle to PMN ratio of 50:1, mixed, and incubated for 15 min. The supernatant was then quickly aspirated and each well washed with HBSS. One ml of trypsin (0.25% in saline) was added to each well and the plate incubated for 15 min to detach the cells and remove non-engulfed particles associated on the surface of PMN. The cells were transferred, layered over 2 ml fetal bovine serum (FBS), and centrifuged. The supernatant containing free particles were removed. The cell pellet was suspended, fixed in 2% paraformaldehyde, and plated again into a well. After 10 min, particles engulfed per PMN were counted under a microscope (100 cells per well). The mean values from triplicates were used to calculate percent phagocytosis increase over control mean value. Using purified cyclo[[…]] (SEQ ID no. 1) as an example, we have examined in vitro biological activities of this peptide. A phagocytosis assay was performed to compare the activity of cyclo[[…]] (SEQ ID no. 1) to that of tuftsin. The optimum concentration of tuftsin in this assay is 5 μg/ml. However, the optimum concentration for cyclo[[…]]

[2] = test system: THP-1 (human acute monocytic leukemia) cell line; assay: Thymidine incorporation assay (growth stimulation effect); conditions: THP-1 cells, at 0.001 and 10 μg/ml; FIG. 2
Protocol: Thymidine Incorporation Assay
THP-1 (a human acute monocytic leukemia line) cells were subcultured in RPMI-1640 medium with 10% FBS. Next day THP-1 cells were collected, washed with RPMI-1640 medium with 2% FBS, and plated into well with peptide (1×10^6 cell in 1 ml). The plate was incubated for 18 hours. ^3 H-thymidine (0.1 μCi per well) was then introduced. The plate was incubated for another hour. The cells were collected into a tube using 1 ml of cold HBSS. After washing the cells twice, the cells were mixed with 0.2 ml of 0.1% sodium dodecyl sulfate, and transferred to a liquid scintillation vial for determination of radioactivity. The mean values from triplicates were used to calculate percent increase over control mean value.
To examine the growth stimulating effect of peptides, a thymidine incorporation experiment was performed using THP-1 (human acute monocytic leukemia) cell line.

C[C@@H](O)[C@@H]1NC(=O)CNC(=O)[C@H](CCCNC(=N)N)NC(=O)[C@@H]2CCCN2C(=O)[C@H](CCCCN)NC1=O [cyclo[Thr-Lys-Pro-Arg-Gly]] (cyclo(GTKPR))
enhancement of NK tumor cell cytotoxicity compared with tuftsin (human NK cells): significantly greater cytotoxicity
extent of phagocytosis compared with tuftsin at 5 μg/ml ([1]; 0.1 μg/ml of cyclic peptide vs 5 μg/ml of tuftsin): no significant difference
potency in phagocytosis assay compared with tuftsin ([1]; at lower concentrations of 0.01 and 0.1 μg/ml, Student t-test, FIG. 1): significantly superior potency over tuftsin
optimum concentration in phagocytosis assay ([1]; human PMNs, 15 min incubation, particle to PMN ratio 50:1, FIG. 1): 0.1 µg/mL
optimum concentration, fold lower than tuftsin ([1]; phagocytosis assay, human PMNs): 50 fold
growth stimulating activity (3H-thymidine incorporation) compared with tuftsin [2]: significantly greater activities than tuftsin
